Measurements published in patent publication US20050209157A1, “Short bioactive peptides and methods for their use” (priority 2001, published 2005).
Entries after “also recorded” stand apart in the source; their conditions may differ. No end group written: not given here.

Key:
S. typhimurium 14028S = type: cell-based, Salmonella typhimurium; settings: mean of three; 16 to 20 hours at 35° C.; in µg/mL
P. aeruginosa H374 = type: cell-based, Pseudomonas aeruginosa; settings: mean of three; 16 to 20 hours at 35° C.
[1] = tested on: human red blood cells (RBC); assay: in vitro; type: cell-based; settings: hemolytic assay, concentration at 50% hemolysis, 1 hour at 37° C.
collagen = assay: Collagen stimulation, ELISA on fibroblast cell lines; type: cell-based
Procedure: Fibroblast cell lines were cultured under standard conditions and assayed for collagen and laminin using an ELISA system manufactured by Panvera (Madison, Wis.). Antibodies for collagen and laminin manufactured by Takara Shuzo Co., Ltd Japan. […] The other three peptides tested neither stimulated nor inhibited production (i.e. no effect was observed).

S. epidermidis C621 = type: cell-based, Staphylococcus epidermidis; settings: mean of three; 16 to 20 hours at 35° C.
S. pyogenes ATCC19615 = assay: Antimicrobial assays II, NCCLS broth microdilution MIC; type: cell-based, Streptococcus pyogenes; settings: mean of three, in µg/mL
S. pneumoniae C718 = assay: as above; type: cell-based, Streptococcus pneumoniae; settings: mean of three
S. pneumoniae C719 = assay: as above; type: cell-based, Streptococcus pneumoniae; settings: mean of three, in µg/mL
in vitro = type: cell-based, human; settings: human, human red blood cells, pH 7, hemolytic assay, concentration at 50% hemolysis, 1 hour at 37° C.; read-out: LD50
[2] = tested on: hairless rat skin burn wound; assay: In vivo wound healing, TCA chemically induced skin burn wound; settings: for Epidermal thickening / Fibroblast cells in test area / Inflammatory response area / Leukocyte cells in test area / Wound closure: rat model, TCA burn treated by peptide; for Wound closure: 26 days
Source text: The hairless rat was chosen as a suitable test model. Female hairless rats of 100 to 150 grams weight and 8 to 12 weeks age were used in the study.
As an alternative, 70% trichloroacetic (TCA) dissolved in 70% ethanol was employed to induce the dermal erosion patches. […] As the chemical burn agent, the TCA treatment inflicted on the rats far less trauma and mortality than occurred with the Phenol model.
The experimental Protocol procedure steps were as follows: • 1. The animal was anesthetized (40 mg/kg Phenobarbital). • 2. Color photographs of the animal's back (with six separate peels) were taken before each treatment and daily thereafter. • 3. Rat skin surface was prepared by wiping with 70% ethanol. Filter paper discs (1.1 cm diameter) were soaked in 70% TCA/ethanol. • 4. The discs were placed on the back of the hairless rat for 30 minutes [6 disks providing for 2 control (no peptide treatment) disks and 4 disks for peels to receive peptide treatment.] • 5. After a 30 minute burn the discs were removed. Twenty four hours later, different peptide solutions (1500 ppm in saline) were applied to four peels, and saline was applied to the two control peels. • 6. Peptide solutions (and saline for the controls) were applied to the six wounds with a soft brush each day thereafter. • 7. It took approximately one month for the wounds to heal (complete skin closure with stabilized epidermis), after which the animal was sacrificed. • 8. The treated skin was harvested, section stained with trichrome, and mounted on slides.
The percentage of wound closure for each peel (six sites) was measured each day until the animal was sacrificed. The percentage closure was determined by measuring on the animal photographs the area of the remaining scab relative to the area of the initial scar after the burn. These measurements were made by digitizing and analyzing the peels using the Sigma Plot ProScan 4 program.
This provided a measure of the post-TCA burn treatment of the inflammatory response in each peel site.
The extent of epidermal thickening (hyperkeratosis) at each site was also determined by measurement with the Sigma Plot program applied to the stained section slides of the various wound areas and the normal untreated skin (control) surrounding the peels. At magnifications of 100× to 320×, the microphotographs of the color slides provided a powerful tool for such quantification of the extent of hyperkeratosis evident in each peel.
Treatment of the section slides with selective stains produced identifiable evidence of the presence of both leukocyte and fibroblast cells in the wound areas. This was also quantified by the Sigma Plot program.
The above described animal model and protocols were employed in the testing of approximately 20 of the peptides listed in Table 48 (and other peptides for comparison) as preferred FLAK peptides for wound healing.

Pseudomonas aeruginosa = assay: Serum inactivation of peptides, serum MIC; type: cell-based; settings: for MIC 30 min treatment: sheep serum 37° C. 30 minutes; for MIC 2 hr treatment: sheep serum 37° C. 2 hours
Procedure: Subsequently, the serum MICs against Pseudomonas aeruginosa were conducted to determine extent of serum inactivation of the peptides.

[3] = Solubility of peptides in sheep serum; type: physicochemical

Substance | S. typhimurium 14028S MIC (S. typhimurium 14028S) | P. aeruginosa H374 MIC (P. aeruginosa H374) [µg/mL] | Collagen stimulation (collagen) [%] | S. epidermidis C621 MIC (S. epidermidis C621) [µg/mL] | S. pyogenes MIC (S. pyogenes ATCC19615) | S. pneumoniae MIC (S. pneumoniae C718) [µg/mL] | S. pneumoniae MIC (S. pneumoniae C719) | HC50 at 1 h (in vitro) [µg/mL] | Epidermal thickening [2] | Fibroblast cells in test area [2] | Inflammatory response area [2] | Leukocyte cells in test area [2] | Wound closure [2] | also measured
MPKWKVFKKIEKVGRNIRNGIVKAGPAIAVLGEAKALG-NH2 [P12, reference compound] | 4 | 8 | 0 | – | – | – | – | – | – | – | – | – | – | LD50 [1]: > (> indicates greater than 1000)
FALKALKKLKKALKKAL-NH2 [P153] | – | – | 120 | 4 | 2 | 32 | 8 | 800 | 25 % of control (TCA only) | 350 % of normal skin | 7 % of healed scar | 235 % of normal skin | 99.1 % of initial wound | rate of wound closure ([2]; hairless rat, full wound closure at 26 days): small advantage in rate of wound closure over the other peptides and no peptide; ability to limit post-TCA burn inflammatory responses ([2]; hairless rat, peptide solutions 1500 ppm in saline, topical daily): superior in this respect; hyperkeratosis (epidermal thickening) ([2]; hairless rat, peptide solutions 1500 ppm in saline, topical daily, listed as SEQ ID NO:115): lowest evidence of hyperkeratosis (epidermal thickening); also recorded: substantially no hyperkeratosis as compared to the TCA burn untreated control; MIC 30 min treatment (Pseudomonas aeruginosa; first of two columns): 10 µg/mL; MIC 30 min treatment (Pseudomonas aeruginosa; second of two columns): 5 µg/mL; MIC 2 hr treatment (Pseudomonas aeruginosa; first of two columns): 20 µg/mL; MIC 2 hr treatment (Pseudomonas aeruginosa; second of two columns): 5 µg/mL; change of activity by exposure to serum (serum MIC against Pseudomonas aeruginosa) (Pseudomonas aeruginosa; sheep serum, […], 37° C. for 30 minutes or 2 hours): only modestly decreased; Solubility ([3]; sheep serum, […], 70% serum): Soluble; Solubility ([3]; sheep, 70% sheep serum): ≥ 1280 µg/mL
FAVGLRAIKRALKKLRRGVRKVAKDL-NH2 [P157, reference compound] | 8 | 8 | – | 4 | 8 | 128 | 16 | 850 | 80 % of control (TCA only) | 450 % of normal skin | 25 % of healed scar | 265 % of normal skin | 95.2 % of initial wound | –
